Entries after “also recorded” stand apart in the source; their conditions may differ.
Assays:
[1] = tested on: transgenic thymocytes; test: Negative selection of transgenic thymocytes after i.p. peptide injection into TCR^TgTCRα^− mice (wild type A^b); format: in vivo, mouse
Method: Flow cytometry analysis. Monoclonal antibodies specific for CD4(RM4-5), CD8(53-6.7), VβB8(F23.1), CD69(H1.2F3), CD44(IM7) and CD62L(MEL-14) were purchased from PharMingen (San Diego, Calif.) and used according to manufacturer's recommendations. Cells were analyzed using a FACSCalibur instrument (Becton Dickinson, San Jose, Calif.) and CellQuest software. For intracellular stain cells were first stained for CD4 and CD8, fixed in 2% paraformaldehyde, permeabilized in 0.1% Tween-20 and stained with anti-bcl-2 antibody (Pharmingen) according to manufacturer instruction.
Peptide injections and surgical procedures. TCR^TgTCRα^− and TCR^TgTCRαH2-M^−Ii^− were injected i.p. with agonist and control peptides dissolved in PBS. After indicated time mice were sacrificed, thymus and lymph nodes were collected and single cell suspensions were prepared. Pups were injected with 2 μg of peptide subcutaneously 12-24 hours after birth and thymi were transplanted into recipient mice 24 hours after injection. 5-8 week old TCR^TgTCRα^− H2-M^−Ii^− mice were used for thymectomy or as thymic transplant recipients. Surgical procedures were performed as described (Coligan et al., 1997). Mice were handled according with the institutional guidance.
Characterization of peptide agonists for the PCC specific transgenic αβTCR. To examine the role of peptides during positive selection in vivo, the inventors generated transgenic mice expressing class II restricted TCR specific for analogs of a pigeon cytochrome C peptide PCC(43-58) presented by the A molecule (Kraj et al., 2001). This receptor recognizes analogs of PCC(43-58) in which aspartic acid in position 50 is replaced by amino acids with neutral/hydrophobic (PCC50V, PCC50V54A, PCC46A49A50V54A, PCC50L, PCC50F) side chains (FIG. 6 and FIG. 9). The TCR transgenic mice were backcrossed to C57BL6 TCRα^− knockout mice so that almost all T cells expressing transgenic TCR become CD4^+ T cells (FIG. 4A and FIG. 10A). Initially, the inventors examined the capacity of agonist peptides to induce negative selection of transgenic T cells.

[2] = tested on: transgenic CD4^+ thymocytes; test: Neonatal thymic organ cultures (NTOC) from peptide-injected TgTCRα^−H-2M^−Ii^− neonates; format: cell-based, mouse; details: single i.p. injection just after birth, thymus harvested 24 hours later
Text: The TgTCRα^−H-2M^−Ii^− system enables the visualization of thymocyte positive selection in real time and in the native intrathymic environment. An in vitro system was setup where the transgenic thymocytes undergo efficient positive selection and commit to the CD4^+ lineage. […] These observations agreed with the previous reports in which CD8^+, but not CD4+, T cells could be positively selected by the specific peptide in FTOCs (Kenty et al., 1998; Liblau et al, 1996). Therefore, neonatal thymic organ cultures (NTOC) were established from TgTCRα^−-H-2M^−Ii^− neonates. The neonates received a single i.p. injection of the PCC50V54A peptide just after birth and were sacrificed 24 hours later when their thymuses were harvested.

For “AEGFSYTVANKAKGIT [PCC50V54A, analog of pigeon cytochrome C peptide PCC(43-58)]”, the “negative selection of transgenic thymocytes” value ([1]; 20 μg i.p., 24 hours, thymus cellularity, annexin V, TUNNEL) was “does not induce negative selection; also recorded: did not induce negative selection”, the thymus cellularity ([1]; 20 μg, TgTCRα^−H-2M^−Ii^− or TgTCRα^−A^bwt mice) was “the same as in control mice” and the “negative selection / deletion of transgenic thymocytes” value ([1]; 200 μg/mouse i.p., 24 hours) was “induced profound negative selection; also recorded: induced profound deletion”. The “apoptotic cells by TUNNEL assay and annexin V staining” value ([1]; after peptide injection, 20 μg) was “failed to demonstrate apoptotic cells” and the “duration of continuous positive selection of CD4^+ thymocytes in NTOC” value [2] was 4 to 5 days.

From patent US20030021796A1, “Method of enhancing T cell immunity by selection of antigen specific T cells” (priority 2001, published 2003)
